Type in all cases: cell-based, human
Assay [1] has as its system TNF-α/IFN-γ-exposed hPD-MSCs. Nature of the assay: Oxygen consumption rate (OCR), Seahorse XFp Extracellular Flux Analyzer. How it is done:
An oxygen consumption rate was measured to assess a mitochondrial metabolic state using a Seahorse XFp Extracellular Flux Analyzer (Agilent, Santa Clara, CA, USA). A total of 10,000 cells/well were seeded in Seahorse XFp cell culture miniplates and cultured with or without TNF-α, IFN-γ and the example compound for 24 hours prior to analysis. The growth medium was replaced with a Seahorse XF base medium containing 2 mM L-glutamine, 5.5 mM D-glucose, and 1 mM sodium pyruvate according to the composition of α-MEM. Cells were treated with 1 μM oligomycin, 0.5 μM FCCP, and 0.5 μM rotenone/antimycin A during the assay. The OCR was measured for 2 minutes after mixing for 3 minutes, and this process was repeated 12 times. A basal OCR was normalized according to the protein concentration determined by BCA analysis.
The OCRs of the untreated MSC control, the TNF-α/IFN-γ-exposed MSC control (TI), and the experimental group treated with the example compound in the TNF-α/IFN-γ-exposed MSC control were measured by the above method, and the results are shown in FIG. 3A.
The basal respiration, ATP production amount, proton leakage, and spare respiratory capacity (SRC) for each of the above samples are shown in FIGS. 3B to 3E.

Assay [2] concerns TNF-α/IFN-γ-exposed hPD-MSCs. Nature of the assay: MSC morphology: bright-field and phalloidin/Hoechst fluorescence images. The following applies: hPD-MSCs with 2.5 ng/mL TNF-α and 25 ng/mL IFN-γ, 24 hours; FIG. 1A. On the procedure: Human placenta-derived mesenchymal stem cells (hPD-MSCs) were harvested from inside the placental chorion, and the harvested cells were cultured in an alpha-Minimum Essential medium (Cytiva, Marlborough, MA, USA) supplemented with 10% fetal bovine serum (ThermoFisher, Waltham, MA, USA), 1% penicillin/streptomycin (ThermoFisher, Waltham, MA, USA), 25 ng/mL human fibroblast growth factor-4 (Peprotech, Rocky Hill, NJ, USA) and 1 μg/mL heparin (Merck, San Francisco, CA, USA). A total of 1×10^5 hPD-MSCs were seeded in a cell culture dish (90×20 mm) (SPL, Pocheon, Korea) and cultured at 37° C. in an incubator containing 5% CO2. The cells were subcultured every 4 days until reaching 70 to 80% confluency. Expanded cells were obtained at passage 12 or 13. During subculture, viable cells were stained with Trypan blue (Merck) and the number of cells was manually counted. […] The morphology of MSCs was confirmed by bright-field images and fluorescence microscope images, stained cells were identified by phalloidin, which specifically labels the F-actin structure, and Hoechst 33342, which labels nuclei, in the fluorescence image, and the results are shown in FIG. 1A. […]

Another assay has as its system IL-6. The assay can be described thus: Real-time qPCR, SASP factor IL-6. As to conditions: vs MSCs exposed to TNF-α/IFN-γ; FIG. 4B. How it is done:
Real-time qPCR was performed using an Easy-Spin Total RNA Kit (iNtRON, Seongnam, Korea) to extract total RNA from hPD-MSCs and RNA concentration was adjusted to 100 ng/μL using a microplate spectrophotometer (Epoch™ Microplate Spectrophotometer, BioTek, Winooski, VT, USA), and the extracted RNA was reverse transcribed into cDNA using RT PreMix (dT20) (Bioneer, Seoul, Korea) using a SimpliAmp Thermal Cycler (Life Technologies, Carlsbad, CA, USA). Real-time qPCR was performed using a real-time PCR machine (CFX Connect, Bio-Rad, Hercules, CA, USA), SYBR Green Supermix (Bio-Rad) and the relevant primers, and all experiments were performed in triplicate for statistical analysis.
In the present experiment, the expression of IL-1β, IL-6, and monocyte chemotactic protein-1 (MCP-1), which are SASP-associated factors of the untreated MSC control, the TNF-α/IFN-γ-exposed MSC control (TI), and the experimental group treated with the example compound in the TNF-α/IFN-γ-exposed MSC control was analyzed by real-time qPCR. As the real-time qPCR analysis method, the same method described in Experimental Example 1-2 above was used, and the results are shown in FIGS. 4A to 4C.

Assay [3] deals with TNF-α/IFN-γ-exposed hPD-MSCs. Nature of the assay: Mitochondrial membrane potential and distribution, MitoSpy confocal microscopy. As to conditions: TNF-α/IFN-γ-exposed MSCs treated with compound; FIG. 2A. How it is done:
hPD-MSCs were stained with MitoSpy Orange CMTMRos (BioLegend, SanDiego, CA, USA) to observe mitochondrial membrane potential, and stained with […]. After 72 hours with or without […] treatment, hPD-MSCs were passaged on a gelatin-coated cover glass (Sigma, St. Louis, Missouri, USA) in 12-well plates (SPL) and stained 24 hours later. The hPD-MSCs were cultured in α-MEM containing 250 nM MitoSpy Green FM and 250 nM MitoSpy Orange CMTMRo for 30 minutes. Stained hPD-MSCs were fixed with 4% paraformaldehyde (Alfa Aesar, Ward Hill, Massachusetts, USA) for 5 minutes, and then stained with 1 μg/mL Hoechst 33342® (ThermoFisher) at room temperature for 5 minutes. Finally, the cover glass was mounted on a slide glass using a mounting solution (VectaShield, ThermoFisher) and samples were imaged with a confocal microscope (LSM880; Zeiss, Oberkochen, Germany). The fluorescence intensities of confocal images were quantified using ZEN 2018 Black and Blue edition software (Zeiss). […]

Molecules are shown by their SMILES.

The record followed here is US20240374646A1, “COMPOSITION FOR INHIBITING INFLAMMATION OR AGING OF STEM CELLS, AND METHOD FOR INHIBITING INFLAMMATION OR AGING BY USING SAME” (MITOIMMUNE THERAPEUTICS INC., priority 2021, published 2024).

`O=S1(=O)CCN(Cc2cc(NC3CCOCC3)c3[nH]c(-c4ccccc4)cc3c2)CC1` [example compound, 5-[(1,1-dioxido-4-thiomorpholinyl)methyl]-2-phenyl-N-(tetrahydro-2H-pyran-4-yl)-1H-indole-7-amine]: the “spare respiratory capacity (SRC)” value in assay [1] (TNF-α/IFN-γ-exposed MSC control treated with compound, FIG. 3E) is on record as “almost the same value as the untreated MSC control”. Further, the “oxygen consumption rate (OCR)” value in assay [1] (TNF-α/IFN-γ-exposed MSCs, 24 hours, FIG. 3A) is on record as “restored TNF-α/IFN-γ-exposed MSCs to quiescence”. In addition, the “decrease of basal respiration” value in assay [1] (vs TNF-α/IFN-γ-exposed MSC control (TI), FIG. 3B) is listed as “about 80 pmol/min/cell”. In addition, the “downregulation of oxygen consumption amount for ATP production” value in assay [1] (vs TNF-α/IFN-γ-exposed MSC control (TI), FIG. 3C) is recorded as “about 70 pmol/min/cell”. In addition, the “abnormal morphology and disorganized microfilaments (F-actin cytoskeletal structure)” value in assay [2] was “remarkably improved to levels similar to those of the untreated MSC control”. Besides, in the assay on IL-6, the IL-6 expression level entry is given as “decreased”. For the same compound, the “mitochondrial membrane potential and distribution” value in assay [3] is “restored to quiescence”.
